According to patent US6500405B1, “Use of certain amides as probes for detection of antitubulin activity and resistance monitoring” (Dow AgroSciences LLC, priority 1996, dated 2002):

Legend:
[1] = molecular target: tubulin in Phytophthora capsici (Phytophthora capsici, UniProt A4ZYP2); test: Binding assay, tritiated compound 1 as probe, germinated zoospore cysts of Phytophthora capsici; conditions: 1 hour preincubation; for IC50: 20 minutes with tritiated compound 1, read-out: IC50 (concentration required to inhibit binding of the radioligand by 50%) (converted)
tubulin in Phytophthora capsici, sequence (A4ZYP2 entry or part of it): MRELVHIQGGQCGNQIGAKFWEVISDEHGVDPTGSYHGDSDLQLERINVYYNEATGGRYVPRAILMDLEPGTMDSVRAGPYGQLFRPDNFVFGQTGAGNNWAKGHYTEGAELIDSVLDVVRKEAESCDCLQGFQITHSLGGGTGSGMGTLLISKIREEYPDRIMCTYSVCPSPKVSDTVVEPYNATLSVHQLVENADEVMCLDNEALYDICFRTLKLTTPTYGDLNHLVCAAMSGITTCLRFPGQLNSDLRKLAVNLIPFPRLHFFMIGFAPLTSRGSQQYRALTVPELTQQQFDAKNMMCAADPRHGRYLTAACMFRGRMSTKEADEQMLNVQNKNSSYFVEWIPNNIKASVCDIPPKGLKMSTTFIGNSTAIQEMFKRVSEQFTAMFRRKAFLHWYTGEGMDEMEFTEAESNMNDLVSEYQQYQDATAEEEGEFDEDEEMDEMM
tubulin in Phytophthora capsici, sequence (A4ZYP4 entry or part of it, further chain): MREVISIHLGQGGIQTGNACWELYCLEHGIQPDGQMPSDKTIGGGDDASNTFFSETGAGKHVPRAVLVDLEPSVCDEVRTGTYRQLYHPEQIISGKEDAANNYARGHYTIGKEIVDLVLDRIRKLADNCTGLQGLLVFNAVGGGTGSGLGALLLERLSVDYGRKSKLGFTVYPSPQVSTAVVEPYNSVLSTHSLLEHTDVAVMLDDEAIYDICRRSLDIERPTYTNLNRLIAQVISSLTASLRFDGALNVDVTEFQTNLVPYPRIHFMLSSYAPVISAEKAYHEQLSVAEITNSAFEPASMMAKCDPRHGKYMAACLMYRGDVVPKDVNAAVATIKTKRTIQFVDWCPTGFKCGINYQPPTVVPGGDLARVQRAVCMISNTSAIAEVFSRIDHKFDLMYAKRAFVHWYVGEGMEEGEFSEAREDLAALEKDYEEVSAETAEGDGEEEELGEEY
Procedure: The effect of zarilamide and compounds 7, 8, 16, 19, 23 and 27 described in Table 1 on binding of compound 1 to tubulin in Phytophthora capsici is shown in this example.
Zoospores of P. capsici were prepared as follows. Petri plates, 9 cm in diameter, containing 15 ml of V-8 agar were inoculated with a mycelial plug of P. capsici and incubated for 4 days in the dark at 25° C., then placed under continuous fluorescent light for 3 days to induce sporulation. To induce zoospore release, 15 ml of sterile water was added to each plate. The plates were incubated at room temperature for 10 minutes, followed by 20 minutes at 4° C., and finally returned to room temperature for 15 minutes. The zoospore-containing fluid was then removed from each plate and adjusted to a density of 5×10^5 zoospores per ml. Assay tubes containing germinated zoospores cysts were prepared by adding 100 μl of zoospore suspension to 400 μl of asparagine-sucrose medium in 16×1.25 cm polypropylene tubes, which were then loosely capped and incubated on a gyrotary shaker at 120 rpm for 24 hours at 26° C.
Tubes containing germinated zoospore cysts then received 2.5 μl of DMSO (control) or 2.5 μl of test compound dissolved in DMSO. Each compound was tested at a series of concentrations. Tubes were incubated with shaking at 26° C. for 1 hour, then 2.5 μl of a 40 μM solution of tritium-labeled compound 1 in DMSO were added. Vials were incubated with shaking at 26° C. for 20 minutes, then binding of the radioligand was stopped by adding 1.5 ml of ice-cold unlabeled 133 μM compound 1, and transferring the tubes to an ice bath. Following centrifugation at 3,400 rpm for 3 minutes, the supernatant was discarded and the pelleted cells were resuspended in 2 ml of ice-cold 10% trichloroacetic acid. Samples were kept for 1 hour in an ice bath, centrifuged again, and the cells resuspended in 2 ml of ice-cold ethanol. After incubation for a further 1 hour in an ice-bath, an additional 4 ml of ice-cold ethanol was added to each tube and the cells were collected by filtration on glass fiber filters in a Brandell cell harvester (Brandel Biomedical Research and Development Laboratories, Inc., Gaithersburg, Md.), and washed twice with 4 ml of ice-cold ethanol. The filters with washed cells were transferred to scintillation vials and 0.1 ml of water was added followed by 1 ml of Protosol™ (Dupont NEN Research Products). The vials were incubated at 60° C. for 30 minutes and cooled to room temperature. Ten ml of Econofluor™ scintillation fluid (Dupont NEN Research Products) was added, and the samples were counted in a scintillation counter to determine the amount of bound radioactivity. IC50 values for each test compound (defined as the concentration required to inhibit binding of the radioligand by 50% as compared to controls lacking the test compound) were determined from dose-response curves and are presented in Table 9.

[2] = test system: tubulin in tobacco suspension-cultured cells; test: Whole cell binding assay, tritiated compound 1 as probe, tobacco suspension-cultured cells; conditions: for Binding of radioligand (% control): 2 hours preincubation, 20 minutes with tritiated compound 1; for Effect on binding of the radioligand (in words): tobacco cells, tritiated compound 1
Procedure: The effects of various antitubulin compounds from different chemical classes on binding of compound 1 to tubulin in tobacco suspension-cultured cells is shown in this example.
Aliquots (2 ml) of suspension-cultured tobacco cells grown as described in Example 2 were added to 25 ml capacity glass vials. Each vial then received 5 μl of DMSO (control) or 5 μl of an antitubulin compound dissolved in DMSO. Vials were incubated with shaking at 27° C. for 2 hours, then 5 μl of a 100 μM solution of tritium-labeled compound 1 in DMSO was added. Vials were incubated with shaking at 27° C. for 20 minutes, then binding of the radioligand was stopped by adding 5 μl of unlabeled 40 mM compound 1. The samples were incubated with shaking at 27° C. for a further 20 minutes, then transferred to 15 ml capacity polypropylene centrifuge tubes in an ice bath. Each vial was rinsed with 2 ml ice-cold growth medium (described in example 2) and the rinse solution was then added to the rest of the sample. Following centrifugation at 4° C. for 3 minutes at 2,500 rpm the supernatant was discarded and the pelleted cells were resuspended in 4 ml of ice-cold 10% trichloroacetic acid. Samples were kept for 1 hour in an ice bath, centrifuged again, and the cells resuspended in 4 ml of ice-cold ethanol. After incubation for a further 1 hour in an ice-bath the cells were collected by filtration on glass fiber filters and washed twice with 10 ml of ice-cold ethanol. The filters with washed cells were transferred to scintillation vials, 10 ml of Hydrofluor™ scintillation fluid (National Diagnostics, Manville, N.J.) was added to each, and the samples were counted in a scintillation counter to determine the amount of bound radioactivity. The effects of different antitubulin compounds on binding of the radioligand are presented in Table 7 with the amounts of radioligand bound in the presence of each antitubulin compound expressed as a percentage of the amount of radioligand bound in the DMSO control.

[3] = test system: tubulin in colon cancer cell line HCT-116; test: Whole cell binding assay, tritiated S-enantiomer of compound 2 as probe, colon cancer cell line HCT-116; conditions: for Binding of radioligand (% control): HCT-116, 1 hour preincubation, 1 hour with radioligand
Procedure: Effect of antitubulin compounds on binding of the tritiated S-enantiomer of compound 2 to tubulin in a whole cell binding assay using the colon cancer cell line HCT-116 is shown by this example.
The colon cancer cell line HCT-116 (obtained from the American Type Culture Collection) was cultured in 75 cm^2 flasks containing McCoy's 5a Modified Medium with 10% heat-inactivated fetal bovine serum, 50 U/ml of penicillin G and 50 U/ml of streptomycin sulfate. A cell suspension was prepared by trypsinization of the culture, and adjusted to a density of 10^6 cells/ml by dilution into incomplete medium (medium lacking serum, penicillin G and streptomycin). Aliquots (150 μl) of cell suspension were added to wells of 96-well glass fiber filter plates (Millipore Multiscreen® plates, 1 μm glass fiber, Type B). Wells then received 30 μl of a solution of the test antitubulin compound in incomplete medium/DMSO mixture (8.5:1, v/v) or 30 μl of the incomplete medium/DMSO mixture alone (control). After mixing, the plates were incubated at 37° C. for 1 hour, then 25 μl of 0.8 μM tritium-labeled S-enantiomer of compound 2 was added to each well. After mixing, the plates were incubated at 37° C. for 1 hour, then binding of the radioligand to tubulin was stopped by adding 50 μl of 100 μM unlabeled compound 2. The fluid was removed from the plate by vacuum filtration through the glass fiber, then 100 μl of ice-cold 10% trichloroacetic acid was added to each well. The plates were incubated for 1 h at 4° C., then the fluid was removed by filtration. Ice-cold ethanol (250 μl) was added to each well, the plates incubated for 1 h at 4° C., then the ethanol was removed by filtration. Wells were washed 4 more times with 250 μl of ice-cold ethanol. After drying the plates at 37° C. for 20 min, the glass fiber filters were punched out of the wells into scintillation vials, 5 ml of scintillation fluid was added to each vial, and the samples were counted in a scintillation counter to determine the amount of bound radioactivity. The effects of different antitubulin compounds on binding of the radioligand are presented in Table 11 with the amounts of radioligand bound in the presence of each antitubulin compound expressed as a percentage of the amount of radioligand bound in the control.

[4] = test system: tubulin in Phytophthora capsici mycelium; test: Whole cell binding assay, tritiated compound 1 as probe, Phytophthora capsici mycelium; conditions: 1 hour preincubation, 20 min with tritiated compound 1
Procedure: The effect of paclitaxel on binding of compound 1 to tubulin in Phytophthora capsici is shown in this example.
A liquid mycelial shake culture of P. capsici in asparagine-sucrose medium was used to prepare a homogeneous suspension of fungal material for binding assays. Asparagine-sucrose medium (100 ml) was inoculated with mycelial plugs cut from cultures grown on V-8 agar, and incubated at 26° C. on a gyrotary shaker for 48 hours. The culture was homogenized in a blender, and 30 ml of the homogenate subcultured into 100 ml of fresh medium, which was then incubated at 26° C. on a gyrotary shaker for 17 hours. The resulting mycelium was recovered from the medium by centrifugation and resuspended in 1170 ml of fresh medium. Aliquots (2 ml) of this suspension were added to 25 ml capacity glass vials. Each vial then received 5 μl of DMSO (control) or 5 μl of paclitaxel dissolved in DMSO. Vials were incubated with shaking at 26° C. for 1 hour, then 5 μl of a 100 μM solution of tritium-labeled compound 1 in DMSO was added. Vials were incubated with shaking at 26° C. for 20 min, then binding of the radioligand was stopped by adding 5 μl of unlabeled 40 mM compound 1. The samples were incubated with shaking at 27° C. for a further 20 minutes, then transferred to 15 ml capacity centrifuge tubes in an ice bath. Each vial was rinsed with 2 ml ice-cold medium which was then added to the rest of the sample. Following centrifugation at 4° C. for 5 minutes at 3,400 rpm, the supernatant was discarded and the pelleted cells were resuspended in 4 ml of ice-cold 10% trichloroacetic acid. Samples were kept for 1 hour in an ice bath, centrifuged again, and the cells resuspended in 4 ml of ice-cold ethanol. After incubation for a further 2 hours in an ice-bath the cells were collected by filtration on glass fiber filters and washed twice with 10 ml of ice-cold ethanol. The filters with washed cells were transferred to scintillation vials, 10 ml of Hydrofluor™ scintillation fluid was added, and the samples were counted in a scintillation counter to determine the amount of bound radioactivity. The effect of paclitaxel at various concentrations on binding of the radioligand are presented in Table 8, with the amounts of radioligand bound in the presence of paclitaxel expressed as a percentage of the amount of radioligand bound in the DMSO control.

CCC(C)(NC(=O)c1cccc(C=NOC)c1)C(=O)CCl (stereo not drawn) [Compound 16] showed an IC50 [1] of 3.76 µM.

With CC(C)OC(=O)Nc1cccc(Cl)c1 [Chlorpropham, chlorpropham] the “Binding of radioligand (% control)” value ([2]; antitubulin compound 100 μM) was 29.1 % control and the “Effect on binding of the radioligand (in words)” value (“Effect on binding” for short) [2] was “reduced binding of the radioligand”.

In the case of CCC(C)(NC(=O)c1cc(Cl)c(Cl)c(Cl)c1)C(=O)CCl (stereo not drawn) [Compound 23], the IC50 [1] is reported as 0.168 µM.

CCOC(C#N)NC(=O)c1ccc(Cl)cc1 (stereo not drawn) [Zarilamide, zarilamide] was tested, and the “IC50 (concentration required to inhibit binding of the radioligand by 50%)” value ([1]; 20 minutes with tritiated compound 1) was 7.02 µg/mL.

In the case of CCCN(CCC)c1c([N+](=O)[O-])cc(C(F)(F)F)cc1[N+](=O)[O-] [Trifluralin, trifluralin], the “Binding of radioligand (% control)” value ([2]; antitubulin compound 100 μM) is reported as 129.0 % control and the “Effect on binding” value [2] is reported as “increased binding of the radioligand”.

Work on CCC(C)(NC(=O)c1cc(C)cc(Br)c1)C(=O)CCl (stereo not drawn) [Compound 8] yielded an IC50 [1] of 0.721 µM.

With CCC(C)(NC(=O)c1cc(Cl)cc(C=NOC)c1)C(=O)CCl (stereo not drawn) [Compound 7] the IC50 [1] was 2.84 µM.

CC(C)(NC(=O)c1cc(Cl)cc(Cl)c1)C(=O)CCl [Compound 19] showed an IC50 [1] of 0.81 µM.

In the case of C#CC(C)(C)NC(=O)c1cc(Cl)cc(Cl)c1 [Pronamide, pronamide], the “Binding of radioligand (% control)” value ([2]; antitubulin compound 100 μM) is reported as 68.7 % control and the “Effect on binding” value [2] is reported as “reduced binding of the radioligand”.

CC(C)C(C)(NC(=O)c1cc(Cl)cc(Cl)c1)C(=O)CCl (stereo not drawn) [Compound 27] gave an IC50 [1] of 5.44 µM.

With CC(=O)O[C@H]1C(=O)[C@@]2(C)[C@H]([C@H](OC(=O)c3ccccc3)[C@]3(O)C[C@H](OC(=O)[C@H](O)[C@@H](NC(=O)c4ccccc4)c4ccccc4)C(C)=C1C3(C)C)[C@]1(OC(C)=O)CO[C@@H]1C[C@@H]2O [Paclitaxel, paclitaxel] the “Binding of radioligand (% control)” value ([2]; antitubulin compound 25 μM) was 50.3 % control, the “Effect on binding” value [2] was “reduced binding of the radioligand” and the “Binding of radioligand (% control)” value ([3]; 0.1 μM) was 37 % control. The “Binding of radioligand (% control)” value ([3]; 1 μM) was 19 % control, the “Binding of radioligand (% control)” value ([3]; 10 μM) was 6 % control and the “Binding of radioligand (% control)” value ([3]; 100 μM) was 4 % control. For the same compound, the “Effect on binding” value ([3]; HCT-116, tritiated S-enantiomer of compound 2) was “reduced binding of the radioligand”, the “Binding of radioligand (% control)” value ([4]; 0.004 μM) was 84.5 % control and the “Binding of radioligand (% control)” value ([4]; 0.02 μM) was 54.6 % control. The “Binding of radioligand (% control)” value ([4]; 0.1 μM) was 34.6 % control and the “Binding of radioligand (% control)” value ([4]; 0.5 μM) was 23.6 % control.
